Assay results reported in ChEMBL document CHEMBL4513161, “CO-ADD screening of MMV (CH) - Pandemic Response Box” (2021).
In brackets after ≈: the same amount, converted by molar mass.

Tests used:
Pseudomonas aeruginosa [1] = experiment: Antibacterial activity against Pseudomonas aeruginosa PAO397 [PAO1 d(mexAB-oprM) d(mexCD-oprJ) d(mexEF-oprN) d(mexJKL) d(mexXY) d(opmH)] (CO-ADD:GN_211); MIC in CAMBH media using NBS plates, by OD(600); type: functional; conditions: ASSAY_TEST Inhibition of Bacterial Growth, detection method Absorption (OD600), MEDIA CAMHB, plate type 384well, CORNING #3640, time 18 hr
Escherichia coli = experiment: microbe, parasite or virus in culture; conditions: ATCC 25922, 18 h, ASSAY_TEST Inhibition of Bacterial Growth, detection method Absorption (OD600), MEDIA CAMHB, plate type 384well, NBS, CORNING #3640
Description: Antibacterial activity against Escherichia coli ATCC 25922 (CO-ADD:GN_001); MIC in CAMBH media using NBS plates, by OD(600)

Klebsiella pneumoniae = experiment: microbe, parasite or virus in culture; conditions: ATCC 700603, 18 h, ASSAY_TEST Inhibition of Bacterial Growth, detection method Absorption (OD600), MEDIA CAMHB, plate type 384well, NBS, CORNING #3640
Description: Antibacterial activity against Klebsiella pneumoniae MDR ATCC 70063 (CO-ADD:GN_003); MIC in CAMBH media using NBS plates, by OD(600)

Candida albicans = experiment: microbe, parasite or virus in culture; conditions: ATCC 90028, ASSAY_TEST Inhibition of Fungal Growth, detection method Absorption (OD530), plate type 384well, NBS, CORNING #3640
Description: Antifungal activity against Candida albicans ATCC 90028 (CO-ADD:FG_001); MIC in YNB media using NBS plates, by OD630

Staphylococcus aureus = experiment: microbe, parasite or virus in culture; conditions: ATCC 43300, 18 h, ASSAY_TEST Inhibition of Bacterial Growth, detection method Absorption (OD600), MEDIA CAMHB, plate type 384well, NBS, CORNING #3640
Description: Antibacterial activity against Staphylococcus aureus MRSA ATCC 43300 (CO-ADD:GP_020); MIC in CAMBH media, using NBS plates, by OD(600)

Acinetobacter baumannii = experiment: microbe, parasite or virus in culture; conditions: ATCC 19606, 18 h, ASSAY_TEST Inhibition of Bacterial Growth, detection method Absorption (OD600), MEDIA CAMHB, plate type 384well, NBS, CORNING #3640
Description: Antibacterial activity against Acinetobacter baumannii ATCC 19606 (CO-ADD:GN_034); MIC in CAMBH media using NBS plates, by OD600

HEK293 = experiment: cells; type: functional, Homo sapiens, ATCC CRL1573; conditions: Homo sapiens, ATCC CRL1573, HEK293; ASSAY_TEST Inhibition of Cell Viability; detection method Resazurin; Fluorescence (ex560/em590); MEDIA DMEM with 10% FBS; plate type 384well; TC; CORNING #3712; time 18 hr; read-out: CC50
Pseudomonas aeruginosa [2] = experiment: microbe, parasite or virus in culture; conditions: ATCC 27853, 18 h, ASSAY_TEST Inhibition of Bacterial Growth, detection method Absorption (OD600), MEDIA CAMHB, plate type 384well, NBS, CORNING #3640
Description: Antibacterial activity against Pseudomonas aeruginosa ATCC 27853 (CO-ADD:GN_042); MIC in CAMBH media using NBS plates, by OD(600)

Description for Cryptococcus neoformans: Antifungal activity against Cryptococcus neoformans H99 ATCC 208821 (CO-ADD:FG_002); MIC in YNB media using NBS plates, by Resazurin OD(600-570)

| Structure (SMILES) | MIC (Pseudomonas aeruginosa [1]) [µM] | MIC (Escherichia coli) [µM] | MIC (Klebsiella pneumoniae) [µM] | MIC (Candida albicans) [µM] | MIC (Cryptococcus neoformans) [µM] | MIC (Staphylococcus aureus) [µM] | MIC (Acinetobacter baumannii) [µM] | CC50 (HEK293) [µM] | MIC (Pseudomonas aeruginosa [2]) [µM] |
| --- | --- | --- | --- | --- | --- | --- | --- | --- | --- |
| Cc1cc(O)c2c(c1)C(=O)c1c(I)c(O)c(I)c(O)c1C2=O | > 20 | > 20 | > 20 | > 20 | > 20 | 20 (≈ 10.4 µg/mL) | > 20 | > 20 | > 20 |
| CC(=O)Nc1cc(NS(=O)(=O)c2ccc(Cl)cc2)cc2c(Cl)[nH]nc12 | > 20 | > 20 | > 20 | > 20 | > 20 | > 20 | > 20 | > 20 | > 20 |
| Cc1cccc(C)c1C(=O)Nc1nc(-c2ccccn2)cc2ccccc12 | > 20 | > 20 | > 20 | > 20 | > 20 | > 20 | > 20 | 7.29 | > 20 |
| O=C(O)c1sccc1S(=O)(=O)n1ccc2cc(Br)ccc21 | > 20 | > 20 | > 20 | > 20 | > 20 | > 20 | > 20 | > 20 | > 20 |
| CCc1ccc(C2CC(C(F)(F)F)n3ncc(C(=O)NCc4ccc(OC)cc4)c3N2)cc1 (stereo not given) | > 20 | > 20 | > 20 | > 20 | > 20 | > 20 | > 20 | > 20 | > 20 |
| Oc1ccc2[nH]c(-c3ccccc3)nc2c1 | > 20 | > 20 | > 20 | > 20 | > 20 | > 20 | > 20 | > 20 | > 20 |
| Cc1nc2ccc(Oc3ccccc3)cc2c2c1CCN2CCc1ccccc1 | 20 (≈ 7.61 µg/mL) | > 20 | > 20 | > 20 | > 20 | > 20 | > 20 | 14.4 | > 20 |
| Cc1cccc(CC(=O)N[C@H]2CCOC2=O)c1 | > 20 | > 20 | > 20 | > 20 | > 20 | > 20 | > 20 | > 20 | > 20 |
| N=C(N)NCCCCC(=O)Nc1cc(C(F)(F)F)cc(NC(=O)c2cc(C(=O)Nc3cc(C(F)(F)F)cc(NC(=O)CCCCNC(=N)N)c3O[C@@H]3CCNC3)ncn2)c1O[C@@H]1CCNC1 | 5 (≈ 4.68 µg/mL) | 1.25 (≈ 1.17 µg/mL) | 2.5 (≈ 2.34 µg/mL) | > 20 | 0.312 (≈ 0.293 µg/mL) | ≤ 0.156 | 5 (≈ 4.68 µg/mL) | > 20 | 10 (≈ 9.37 µg/mL) |
| CCCCc1ccc(-c2cc(C(=O)O)cc(-c3ccc(Cl)cc3)n2)cc1 | > 20 | > 20 | > 20 | > 20 | > 20 | > 20 | > 20 | > 20 | > 20 |
| Nc1nc(-c2ccccc2)nc2c1ncn2[C@@H]1O[C@H](COS(=O)(=O)NC(=O)c2ccccc2O)[C@@H](O)[C@H]1O | > 20 | > 20 | > 20 | > 20 | > 20 | > 20 | > 20 | > 20 | > 20 |
| CCc1nc(N)nc(N)c1C#CCc1ccccc1 | > 20 | > 20 | > 20 | > 20 | > 20 | 20 (≈ 5.05 µg/mL) | > 20 | > 20 | > 20 |
| NC(=O)c1[nH]c2ccc(S(N)(=O)=O)cc2c1-c1ccccc1 | > 20 | > 20 | > 20 | > 20 | > 20 | > 20 | > 20 | > 20 | > 20 |
| CCc1cc(Cc2cnc(N)nc2N)cc2c1N(C)CCC2C (stereo not given) | > 20 | > 20 | > 20 | > 20 | > 20 | 10 (≈ 3.11 µg/mL) | > 20 | > 20 | > 20 |
| C=CCc1cc(Cc2cnc(N)nc2N)cc(OC)c1O | 10 (≈ 2.86 µg/mL) | 2.5 (≈ 0.716 µg/mL) | 10 (≈ 2.86 µg/mL) | > 20 | > 20 | 2.5 (≈ 0.716 µg/mL) | > 20 | > 20 | > 20 |
